In PMC12592400, “A unique inhibitor conformation selectively targets the DNA polymerase PolC of Gram-positive priority pathogens” (Nature Communications, 2025):

Tests used:
E. faecium ATCC 700221 = test: Frequency of resistance (FOR) study; type: cell-based, Enterococcus faecium; conditions: for CFU total count (48h): replicates 1-2; for Number of reduced susceptible colonies: Suppl. Table 2
Method: Strains with reduced susceptibility to ACX compounds were generated by WuXi Apptec on behalf of Acurx Pharmaceuticals, Inc., using E. faecium ATCC 700221 as parental strain.
Agar MICs for the wild-type strain were determined on Blood agar (Huankai). Compounds and linezolid were dissolved in 100% DMSO and vancomycin in ultrapure water. Strains were inoculated onto agar plates, incubated at 37 °C for 20-24 h after which colonies were suspended in sterile 0.9% saline at different bacterial concentrations. 5 μL of bacterial suspensions was individually spotted on agar plates supplemented with compounds at different concentrations, resulting in final concentrations of 10^–1, 10^–2, 10^–3, 10^–4, 10^–5, 10^–6, and 10^–7 per spot. After incubation for 20-24 h, bacterial growth was assessed by visual inspection.
For frequency of resistance (FOR) studies, colonies from the agar plate were suspended into sterile 0.9% saline to get 10^8-10^9 CFU bacterial cells per mL. […] The suspensions were also serially diluted with 0.9% saline and spotted onto agar to determine the actual inoculum. All agar plates were incubated at 37 °C for 48 h. FOR was defined as colony number on each compound-containing plate per CFU number of actual inoculum. Resistant colonies were subcultured on the corresponding compound plates to confirm that colonies were resistant and stable.

[1] = tested on: C. difficile strain carrying a F1258L mutation; test: MIC of C. difficile strain obtained by one-step passage; type: cell-based; conditions: Clostridioides difficile
[2] = tested on: Clostridioides difficile infection; parameters: method as in PMID 35862742, PMID 35134880; conditions: patients cured of CDI through treatment with IBZ; cited from earlier work

Structure (SMILES)	CFU total count (48h) (E. faecium ATCC 700221; 1x MIC (ACX-728 2, ACX-641 0.5, ACX-671 1, ACX-763 4, Linezolid 2 mg/L), inoculum 1.3E+07 CFU/plate)	CFU total count (48h) (E. faecium ATCC 700221; 1x MIC (ACX-728 2, ACX-641 0.5, ACX-671 1, ACX-763 4, Linezolid 2 mg/L), inoculum 1.3E+08 CFU/plate)	CFU total count (48h) (E. faecium ATCC 700221; 2x MIC (ACX-728 4, ACX-641 1, ACX-671 2, ACX-763 8, Linezolid 4 mg/L), inoculum 1.3E+07 CFU/plate)	CFU total count (48h) (E. faecium ATCC 700221; 2x MIC (ACX-728 4, ACX-641 1, ACX-671 2, ACX-763 8, Linezolid 4 mg/L), inoculum 1.3E+08 CFU/plate)	CFU total count (48h) (E. faecium ATCC 700221; 4x MIC (ACX-728 8, ACX-641 2, ACX-671 4, ACX-763 16, Linezolid 8 mg/L), inoculum 1.3E+07 CFU/plate)	CFU total count (48h) (E. faecium ATCC 700221; 4x MIC (ACX-728 8, ACX-641 2, ACX-671 4, ACX-763 16, Linezolid 8 mg/L), inoculum 1.3E+08 CFU/plate)	CFU total count (48h) (E. faecium ATCC 700221; 8x MIC (ACX-728 16, ACX-641 4, ACX-671 8, ACX-763 32, Linezolid 16 mg/L), inoculum 1.3E+07 CFU/plate)	CFU total count (48h) (E. faecium ATCC 700221; 8x MIC (ACX-728 16, ACX-641 4, ACX-671 8, ACX-763 32, Linezolid 16 mg/L), inoculum 1.3E+08 CFU/plate)	CFU total count (48h) (E. faecium ATCC 700221; 16x MIC (ACX-728 32, ACX-641 8, ACX-671 16, ACX-763 64, Linezolid 32 mg/L), inoculum 1.3E+07 CFU/plate)	CFU total count (48h) (E. faecium ATCC 700221; 16x MIC (ACX-728 32, ACX-641 8, ACX-671 16, ACX-763 64, Linezolid 32 mg/L), inoculum 1.3E+08 CFU/plate)	Number of reduced susceptible colonies (E. faecium ATCC 700221; Fold MIC 2, 1.3E+07 cells plated)	Number of reduced susceptible colonies (E. faecium ATCC 700221; Fold MIC 2, 1.3E+08 cells plated)	Number of reduced susceptible colonies (E. faecium ATCC 700221; Fold MIC 4, 1.3E+07 cells plated)	Number of reduced susceptible colonies (E. faecium ATCC 700221; Fold MIC 4, 1.3E+08 cells plated)	Number of reduced susceptible colonies (E. faecium ATCC 700221; Fold MIC 8, 1.3E+07 cells plated)	Number of reduced susceptible colonies (E. faecium ATCC 700221; Fold MIC 8, 1.3E+08 cells plated)	Number of reduced susceptible colonies (E. faecium ATCC 700221; Fold MIC 16, 1.3E+07 cells plated)	Number of reduced susceptible colonies (E. faecium ATCC 700221; Fold MIC 16, 1.3E+08 cells plated)	MIC [1]	recurrence of CDI during the post-treatment study period [2]
CC(=O)NC[C@H]1CN(c2ccc(N3CCOCC3)c(F)c2)C(=O)O1 [LZD, linezolid]	TMTC	TMTC	TMTC	TMTC	TMTC	TMTC	TMTC	TMTC	TMTC	TMTC	TMTC	TMTC	TMTC	TMTC	TMTC	TMTC	TMTC	TMTC	–	–
O=c1[nH]c(NCc2ccc(Cl)c(Cl)c2)nc2ncn(CCN3CCOCC3)c12 [IBZ, N^2-(3,4-dichlorobenzyl)-7-(2-[1-morpholinyl]ethyl)guanine]	–	–	–	–	–	–	–	–	–	–	–	–	–	–	–	–	–	–	64 µg/mL	no recurrence was observed
